The values that follow are results of earlier work, collected in patent publication US11648211B2, “Nanoencapsulated combination drug formulations” (priority 2019, dated 2023).

Where two headings read alike, the source gives them in different places.

In this series the test system is spontaneous breast cancer.

On to `Cn1ncnc1[C@H]1c2n[nH]c(=O)c3cc(F)cc(c23)N[C@@H]1c1ccc(F)cc1` [TLZ, Talazoparib], for which the animals with alopecia (i.v.) is 25% and the animals with alopecia (oral) is reported as 25%.
